We go through 13 compounds from publication PMC7892437 (Frontiers in Pharmacology, 2021).

The test system of series [1] is VSV-SARS-CoV-2-Sdel18 pseudovirus. Description: microbe, parasite or virus in culture. It is filed as cell-based.
The test system of series [2] is SARS-CoV-2 BetaCoV/Shenzhen/SZTH-003/2020 strain. Kind of series: microbe, parasite or virus in culture. Particulars: for inhibitory effect relative to Chloroquine diphosphate: authentic SARS-CoV-2 assay, in vitro. The series is classed as cell-based.
A short description of another series: in vitro. As to conditions: hamster.
The subject of the next series is VSV-G. It is filed as cell-based, vesicular stomatitis virus.
In the next series the test system is Ebola virus. As to conditions: ref Johansen et al., 2013; cited from earlier work.
Setting [3] is: Pseudovirus, read-out: Co-treatment IC90.
[4] abbreviates: Severe acute respiratory syndrome coronavirus 2, Vero, 120 h.
Setting [5] is: Pseudovirus, read-out: Co-treatment IC50.
Where [6] appears, read: Pseudovirus, read-out: Pre-treatment IC50.
[7] abbreviates: Pseudovirus, read-out: Pre-treatment IC90.

The term IC90 denotes the concentration at which the effect reaches the 90% level. The term IC50 denotes the point on the concentration scale where inhibition reaches its midpoint.

“And” between values parts separate entries of the source, which are not always exact repeats. Equal entries are not always repeated. Where two headings read alike, the source gives them in different places.

Turning to `CCN(CC)CCOc1ccc(C(=C(Cl)c2ccccc2)c2ccccc2)cc1` [Clomiphene (citrate)], the IC90 is 19.6 µM in series [1] (setting [3]) and 33.9 µM in series [2] (setting [4]). Also, the CC50 in the series “in vitro” (Co-treatment CC50) came to 54.4 µM; in “in vitro” (Pre-treatment CC50), 24.9 µM.
With `Br.Cc1ccc(Sc2ccccc2N2CCNCC2)c(C)c1` [Vortioxetine (hydrobromide)], the values for the IC50 in series [1] (read-out: IC50) and in series [2] were 6.99 µM and 28.1 µM, respectively. Also, the IC90 is < 50 µM and 44.6 µM in series [1] (read-out: IC90); 62.8 µM in series [2]. For the same compound, the “inhibitory effect relative to Chloroquine diphosphate” value in series [2] is “slightly less effective”.
In the case of `CN(C)c1ccc2nc3ccc(=[N+](C)C)cc-3sc2c1` [Methylene Blue], in series [1] (Pseudovirus, 12 h), the IC50 stood at 9.05 µM and the IC90 is 70.5 µM.
For the compound `CN1C[C@@H]2c3ccccc3Oc3ccc(Cl)cc3[C@H]2C1.Cl` (racemic) [Asenapine (hydrochloride)], the IC90 in series [1] (read-out: IC90) worked out at 76.4 µM; in series [2] it was 43 µM. For the same compound, the cell cytotoxicity entry in the series with BHK21-hACE2 cells (at the concentration of 100 μM) is recorded as “no obvious cell cytotoxicity was observed”.
For the compound `NC(=O)c1ncn([C@@H]2O[C@H](CO)[C@@H](O)[C@H]2O)n1` [Ribavirin], in series [1] (Pseudovirus, 12 h), inhibition was half-maximal at 9.29 µM (IC50) and the IC90 was 62.1 µM. Also, the “inhibitory effect on VSV-G” value in the series on VSV-G was “significant inhibitor effects”.
Take `CN(C)CCOc1ccc(/C(=C(/CCCl)c2ccccc2)c2ccccc2)cc1` [Toremifene (Citrate)]: the IC50 in series [1] (read-out: IC50) amounted to 5.53 µM. Besides, in series [1] (read-out: IC90), the IC90 amounted to 86.5 µM.
As for `CCN(CC)CCCC(C)Nc1ccnc2cc(Cl)ccc12` (stereo not shown) [Chloroquine diphosphate], the IC50 in series [1] (Pseudovirus, 12 h) was found to be 11.6 µM; in series [1] (setting [5]), 27.6 µM; in series [1] (setting [6]), 9.27 µM; in series [2] (setting [4]), 5.33 µM. In addition, the IC90 stood at 85.2 µM in series [1] (Pseudovirus, 12 h); 35.2 µM in series [1] (setting [7]); 12.9 µM in series [2] (setting [4]).
For `CCN(CC)CCOc1ccc(C(=C(Cl)c2ccccc2)c2ccccc2)cc1` [Clomiphene], in the series on Ebola virus, the “survival benefit for infected mice” value is recorded as 90%.
Take `Cc1ccc(Sc2ccccc2N2CCNCC2)c(C)c1` [Vortioxetine]: the 90% effect concentration (IC90) was 46.6 µM in series [1]; less than 50 µM in series [1] (Pseudovirus, 12 h); 22.3 µM in series [1] (setting [3]); 13.8 µM in series [1] (setting [7]); 18.3 µM in series [2] (setting [4]). In addition, the IC50 came to 7.16 µM in series [1] (Pseudovirus, 12 h); 6.77 µM in series [1] (setting [5]); 3 µM in series [1] (setting [6]); 8.03 µM in series [2] (setting [4]). Further, in series [2], the “inhibitory effect relative to Chloroquine diphosphate” value was “comparable to Chloroquine diphosphate”. In addition, the figures for the CC50 in the series “in vitro” (Co-treatment CC50) and in “in vitro” (Pre-treatment CC50) were 27.1 µM and 28.5 µM, respectively.
With `CN1CCc2c(c3ccccc3n2Cc2ccccc2)C1` [Mebhydrolin (napadisylate)], the IC50 in series [1] (read-out: IC50) came out at 12.1 µM. For the same compound, in series [1] (read-out: IC90), the IC90 worked out at 133 µM.
As to `CCCCc1oc2ccccc2c1C(=O)c1cc(I)c(OCCN(CC)CC)c(I)c1.Cl` [Amiodarone (hydrochloride)], the “effect on authentic SARS-CoV-2 virus infection” value in series [2] (at a concentration of 100 μM) is “no effect”.
In series [1], `CC[C@@H]1/C=C(\C)C[C@H](C)C[C@H](OC)[C@H]2O[C@@](O)(C(=O)C(=O)N3CCCC[C@H]3C(=O)O[C@H](/C(C)=C/[C@@H]3CC[C@H](Cl)[C@H](OC)C3)[C@H](C)[C@@H](O)CC1=O)[C@H](C)C[C@@H]2OC` [Pimecrolimus] displayed a concentration for an effect of 90% (IC90) of 32 µM. Further, in series [1] (Pseudovirus, 12 h), the IC50 amounted to 11.3 µM and the IC90 is less than 50 µM. Besides, the “cytotoxicity compared with the other selected drugs” value with BHK21-hACE2 cells is “more serious cytotoxic than other drugs”.
`CN1CCN(CCCN2c3ccccc3Sc3ccc(C(F)(F)F)cc32)CC1.Cl.Cl` [Trifluoperazine (dihydrochloride)]: the IC50 in series [1] (read-out: IC50) was 5.44 µM. Moreover, the IC90 in series [1] (read-out: IC90) is < 50 µM and 27.3 µM. Further, in the series on BHK21-hACE2 cells, the “cytotoxicity compared with the other selected drugs” value was “more serious cytotoxic than other drugs”.
